According to patent US20220105051A1, “COMPOUNDS FOR INCREASING MHC-I EXPRESSION AND MODULATING HISTONE DEACETYLASE ACTIVITY” (Cava Healthcare Inc., priority 2019, published 2022):
Entries after “also recorded” stand apart in the source; their conditions may differ.

Tests used:
[1] = tested on: MHC-I; assay: MHC-I surface expression by flow cytometry; format: cell-based, murine; conditions: A9 cells, 48 hours after treatment, flow cytometry
Description: A9 and TC-1 cell lines were trypsinized (0.05%, Gibco), washed twice with PBS (Gibco), and stained with allophycocyanin (APC) conjugated anti-mouse H-2K^b antibody (1:200, Biolegend) suspended in 150 μL of FACS buffer (PBS+2% FBS) for 20 minutes at 4° C. Cells were washed twice with PBS and re-suspended in 200 μL FACs buffer containing 1 μL of 7-aminoactinomycin (7AAD) viability stain (Biolegend). Flow cytometry was performed on the LSRII (BDBiosciences) and analysis was done using FlowJo (Flow cytometry Analysis Software).
The marine extract library was provided by Dr. Raymond J. Andersen (UBC). The marine invertebrate specimens were collected by SCUBA diving at a 40 metre depth from regions of high marine biodiversity in Papua New Guinea, Indonesia, Thailand, Sri Lanka, Dominica, Brazil, British Columbia, South Africa, and Norway 35. Previously curcuphenol was identified as the active component in one of the marine extracts showing induction of the APM, and since then two new generations of curcuphenol analogues were synthesized in the lab of Dr. Raymond Anderson. To evaluate the ability of these compounds to induce MHC-I surface expression, A9 cells were plated in 6 well plates at 10^5 cells/well and incubated for 24 hours at 37° C. in a 5% CO2 humidified atmosphere. After 24 hours the medium was removed and replaced with medium containing varying concentration of synthesized compounds (6.7 μg/mL, 20 μg/mL, 60 μg/mL). […] Following treatment, cells were incubated for 48 hours at 37° C. with 5% CO2 and humidified atmosphere. After incubation cells were subjected to flow cytometry.
Evaluation of MHC-I surface expression by flow cytometry. LMD:TAP-1 cells or A9 cells were plated in 6 well plates at a concentration of 10,000 cells per well in a 2 mL volume. The next day, cells were treated with the indicated concentrations of the compounds and incubated for 48 hours at 37° C. After incubation, the cells were trypsinized, washed and stained with APC-conjugated anti-mouse MHC-I (specifically anti-H-2K^b) antibody (Biolegend) and assessed by flow cytometry analysis.

[2] = Water solubility; format: physicochemical
[3] = tested on: A9 metastatic tumour cells; assay: In vivo tumour trial; parameters: species or system C57BL/6 mice; conditions: daily i.p. for 12 days, P02-113 and P03-97-1 5.2 mg/kg, TSA 0.5 mg/kg
Description: (§1) The metastatic cell line, A9, was grown in the DMEM, as previously described without, the addition of antibiotics (penicillin and streptomycin, P/S). Once cells reached 75-80% confluence, they were trypsinized (0.05%, Gibco) and washed with HBSS (Hanks balanced salt solution). The cells were counted using the Bio-RAD TC20 automated cell counter and suspended to a concentration of […] in HBSS. Thirty-two synergistic female C57BL/6 mice, between the ages 6-8 weeks, were subcutaneously injected in the right flank with 50 μL containing 5×10^4 A9 metastatic tumour cells. Seven days following tumour inoculation i.p. treatment began daily for 12 days. Four treatment groups were studied, with eight animals per group. […] Body weights were measured three times a week and once tumours developed they were measured with calipers and tumour volume was calculated. Twelve days after starting treatment, mice were euthanized and tumours were collected and weighed. The tumours were then processed for flow cytometry analysis. Tumours were cut into small pieces and incubated RPMI (Gibco; with P/S 0.5%, Sodium pyruvate 1%, and L-glutamine 1%) and 3 mg/mL collagenase A (Roche) for one hour at 37° C. with shaking. Dissociated tumour cells were passed through a 100 μm filter and spun down at 15,000×RCF for 3 minutes. The pellet was washed once in FACs buffer (2% FBS in PBS) and spun down. The pellet was next suspended in red blood cell (RBC) lysis buffer and kept at room temperature for 5 minutes before being neutralized by the addition of 5 ml of PBS and spun down. If pellets were still found to contain RBCs this step was repeated. Once all RBCs were removed cells were suspended in FACs buffer to a concentration of 10^7 cells/mL. A total volume of 200 ul of cells from each tumour were added to a 96 well plate (Falcon) and incubated with Fc Blocker (Biolegend, 1:400) for twenty minutes at 4° C. The 96 well plate was spun down at 1,200 rmp for three minutes and supernatant was removed. The cells were then suspended in 150 ul of FACs buffer containing anti-CD8a (PE-Cy7, 1:200, eBioscience) and CD4 (APC, 1:200, Biolegend) antibodies and incubated at 4° Celsius for 20 minutes. The cells were washed twice and spun down using FACs buffer before being to flow cytometry tubes in a final volume of 200 ul of FACs buffer containing 7AAD (Biolegend 1:200). Flow cytometry was performed on LSRII (BDBiosciences) and analysis was done using FlowJo (Flow cytometry Analysis Software).
Treatment of tumour-bearing mice with identified compounds. 5×10^4 A9 cells suspended in HBSS were subcutaneously (s.c.) transplanted into the right flank of 32 eight-week-old female C57BI/6 mice, as previously described 75. […] Body weight and tumours (once established) were measured every 2-4 days (more often as tumour size increased). Tumours were measured using calipers and volume was calculated as following: tumour volume=length×width^2. The tumour growth rate was assessed using methods previously described^28.

[4] = tested on: CD4+ and CD8+ T cells; assay: Analysis of tumour-infiltrating lymphocytes; format: in vivo, C57BL/6 mice; conditions: after 12 days of treatment, flow cytometry
Description: as §1
Analysis of tumour-infiltrating lymphocytes (TILs). Tumour-infiltrating T lymphocyte (either CD4^+ or CD8^+ T cells) infiltration was evaluated in tumours of mice following 2-week treatment with either compounds or controls. Tumours at the site of initial injection were removed from tumour-bearing mice. Following tumour dissociation in the presence of collagenase A (Roche) and erythrocyte lysis, the tumour cells were then washed and prepared as single-cell suspensions to detect TILs. Before staining with antibodies, the cells were incubated with Fc Blocker (Ebiosciences) for 20 minutes at 4° C. The tumour cells were then washed and stained with anti-CD4-APC (Biolegend), anti-CD8-PECy7 (eBiosciences) and 7-AAD (Biolegend) viability stain. Using flow cytometry, 7-AAD positive dead cells were gated out and the remaining population was assessed for CD4^+ and CD8^+ expression. Data were acquired using a BD™ LSR II flow cytometer (BD Biosciences) with FACSDiva™ software and analyzed with FlowJo software (Treestar).

[5] = tested on: MHC-I; conditions: earlier work of the lab; cited from earlier work
[6] = literature; cited from earlier work
[7] = tested on: TAP-1; assay: High-throughput cell-based screen for TAP-1 induction (EGFP under the TAP-1 promoter); parameters: species or system murine; conditions: LMD:TAP-1 cells, 10 ng/mL
From the text: Identification of marine natural product extracts with the ability to promote up-regulation of TAP-1 and […] expression in cancer cells: A high-throughput cell-based screen was used for identification of candidate compounds that increase the expression of TAP-1 in the LMD murine metastatic prostate cell line. To assess the induction of TAP-1 expression we used the LMD:TAP-1 cell line, which was transfected with a vector containing EGFP under the TAP-1 promoter^44. The Cellomics™ Arrayscan VTI automated fluorescence imager was used to determine the cell numbers based on DNA staining and the average GFP fluorescence intensity which correlates to the levels of TAP-1 induction (FIG. 24A). […]
Cell-based screening assay. […] Image acquisition, segmentation and analysis of micro plates were carried out using the Cellomics™ Arrayscan V^TI automated fluorescence imager (Thermo Fisher Scientific). […] The target activation algorithm was used to identify the nuclei based on Hoechst fluorescence intensity, apply a cytoplasmic mask and quantitate GFP fluorescence intensity within the cytoplasmic mask area. Average GFP fluorescence intensity (intensity per cell per pixel) and total number of cells per well were determined. […]

For `Cc1ccc(CCCC(O)C(C)(C)O)c(O)c1` (stereo not shown) [P04-149], the “induction of MHC-I expression at the cell surface” value [1] was “increases MHC-I expression” and the water solubility [2] was “water soluble”.

In the case of `CC(/C=C/C(=O)NO)=C\[C@@H](C)C(=O)c1ccc(N(C)C)cc1` [TSA, Trichostatin A, reference compound], the “tumour volume / tumour growth compared to vehicle control” value ([3]; A9 tumours) is reported as “reduced”, the body weight [3] is reported as “remained stable; also recorded: no significant changes” and the “CD4+ T cell infiltration of tumours” value [4] is reported as “no significant infiltration or difference; also recorded: did not appear to increase”. The “CD8+ T cell (CTL) infiltration of tumours” value [4] was “greatest CD8+ infiltration; also recorded: increase in the CTL infiltration”, the “restoring the MHC-I on A9 cells” value [5] was “effective in restoring the MHC-I” and the “detection after 24 hours” value [6] was “no detection”. The half-life [6] was “under ten”.

B1: IFN-γ: known inducer of TAP-1 expression, positive control (protein, UniProt P01579 24-161, looked up)
Interferon gamma: QDPYVKEAENLKKYFNAGHSDVADNGTLFLGILKNWKEESDRKIMQSQIVSFYFKLFKNFKDDQSIQKSVETIKEDMNVKFFNSNKKKRDDFEKLTNYSVTDLNVQRKAIHELIQVMAELSPAAKTGKRKRSQMLFRG
For B1, the “TAP promoter-induced GFP expression” value [7] was “high level of GFP expression”.
